Measurements: paper PMC2580772, “The dual transcriptional regulator CysR in Corynebacterium glutamicum ATCC 13032 controls a subset of genes of the McbR regulon in response to the availability of sulphide acceptor molecules” (BMC Genomics, 2008)

Target: T1, CysR (Corynebacterium glutamicum, UniProt Q8NU28)
T1 construct: gene Cgl0121; expressed in E. coli ER2566 from pTYB1 (pCR050)
T1 sequence (Q8NU28 1-381): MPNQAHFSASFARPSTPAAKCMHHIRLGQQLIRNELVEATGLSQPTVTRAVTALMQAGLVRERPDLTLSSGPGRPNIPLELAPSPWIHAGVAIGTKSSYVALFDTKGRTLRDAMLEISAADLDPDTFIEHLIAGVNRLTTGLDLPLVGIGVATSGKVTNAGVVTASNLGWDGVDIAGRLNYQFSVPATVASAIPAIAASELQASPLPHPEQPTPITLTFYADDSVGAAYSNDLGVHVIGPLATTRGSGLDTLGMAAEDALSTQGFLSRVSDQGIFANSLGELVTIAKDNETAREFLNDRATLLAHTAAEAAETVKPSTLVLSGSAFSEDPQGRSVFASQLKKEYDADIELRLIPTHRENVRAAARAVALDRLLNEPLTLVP
Test: EMSA, effector-dependent DNA binding
Conditions: 10 mM effector; Cy3-labelled 523 bp cysI-fpr2 DNA; 1,000 times molar excess of protein; pH 7.5; room temperature; co-activator

| Structure (SMILES) | EMSA, effector-dependent DNA binding |
| --- | --- |
| CC(=O)OCC[C@H](N)C(=O)O [OAH, O-acetyl-L-homoserine] | CysR can only bind if either OAS or OAH is added to the assay |
| CC(=O)OC[C@H](N)C(=O)O [OAS, O-acetyl-L-serine] | CysR can only bind if either OAS or OAH is added to the assay |
